Where a name gives a salt, the structure may show the parent alone.

For this assay, the system named is MC3T3-E1 cells. Description: ALP activity, differentiation of osteoblast cells. In kind it is cell-based. To be noted: Mus musculus, MC3T3-E1, 144 h; MC3T3E1 cells treated with 10 μM compound and OF; relates activity to OF-only group (100%); higher = more efficacious. The gist of the method: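 MC3T3-E1 cells were cultured 6 days at 37 °C in osteogenic medium (ascorbic acid, β-glycerophosphate) with compound at 0.1, 1 and 10 μM; medium and compound were renewed every 2-3 days. Freeze-thaw lysates were protein-normalised and ALP activity was read with 4-nitrophenylphosphate; DMSO and OF-only groups served as comparators.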
Turning to `COc1ccc(C2=C(c3ccc(F)cc3F)c3ccc(OCCCN4CCN(S(C)(=O)=O)CC4)cc3C2=O)cc1F` [Example 110, 2-(3-fluoro-4-methoxyphenyl)-3-(2,4-difluorophenyl)-6-{3-[4-(methylsulfonyl)piperazin-1-yl]propoxy}-1H-inden-1-one], the activity at 10 µM is 207%.

As for `O=C1C(c2cnc3ccccc3c2)=C(c2ccccc2)c2ccc(OCCN3CCOCC3)cc21` [Example 3, 6-(2-morpholinoethoxy)-3-phenyl-2-(quinolin-3-yl)-1H-inden-1-one], the activity at 10 µM worked out at 216%.

As to `CN(C)CCOc1ccc2c(c1)C(=O)C(c1cccnc1)=C2c1ccccc1` [Example 56, 6-(2-(dimethylamino)ethoxy)-3-phenyl-2-(pyridin-3-yl)-1H-inden-1-one hydrochloride salt], the activity at 10 µM worked out at 71%.

Turning to `COc1ccc(C2=C(c3cc(F)cc(F)c3)c3ccc(OCCN4CCN(S(C)(=O)=O)CC4)cc3C2=O)cc1F` [Example 99, 2-(3-fluoro-4-methoxyphenyl)-3-(3,5-difluorophenyl)-6-{2-[4-(methylsulfonyl)piperazin-1-yl]ethoxy}-1H-inden-1-one hydrochloride salt], the activity at 10 µM turned out to be 212%.

Consider `O=C1C(c2ccc(F)c(F)c2)=C(c2ccccc2)c2ccc(OCCN3CCOCC3)cc21` [Example 18, 6-(2-morpholinoethoxy)-2-(3,4-difluorophenyl)-3-phenyl-1H-inden-1-one], for which the activity at 10 µM was 349%.

`CS(=O)(=O)N1CCC(CCOc2ccc3c(c2)C(=O)C(c2cnc4ccccc4c2)=C3c2ccc(F)cc2F)CC1` [Example 123, 3-(2,4-difluorophenyl)-6-{2-[1-(methylsulfonyl)piperidin-4-yl]ethoxy}-2-(quinolin-3-yl)-1H-inden-1-one]: the activity at 10 µM came to 164%.

As for `CN1CCC(CCOc2ccc3c(c2)C(=O)C(c2cccnc2)=C3c2cc(F)cc(F)c2)CC1` [Example 71, 3-(3,5-difluorophenyl)-6-(2-(1-methylpiperidin-4-yl)ethoxy)-2-(pyridin-3-yl)-1H-inden-1-one hydrochloride salt], the activity at 10 µM was 19%.

For `O=C1C(c2cnc3ccccc3c2)=C(c2ccc(F)cc2F)c2ccc(OCCN3CCS(=O)(=O)CC3)cc21` [Example 115, 3-(2,4-difluorophenyl)-6-[2-(1,1-dioxothiomorpholin-4-yl)ethoxy]-2-(quinolin-3-yl)-1H-inden-1-one], the activity at 10 µM turned out to be 199%.

`O=C1C(c2ccc(C(F)(F)F)cc2)=C(c2cc(F)cc(F)c2)c2ccc(OCCN3CCOCC3)cc21` [Example 37, 6-(2-morpholinoethoxy)-2-(4-(trifluoromethyl)phenyl)-3-(3,5-difluorophenyl)-1H-inden-1-one]: the activity at 10 µM came to 80%.

Consider `O=C1C(c2cccnc2)=C(c2cc(F)cc(F)c2)c2ccc(OCCc3ccccn3)cc21` [Example 62, 3-(3,5-difluorophenyl)-6-(2-(pyridin-2-yl)ethoxy)-2-(pyridin-3-yl)-1H-inden-1-one hydrochloride salt], for which the activity at 10 µM turned out to be 90%.

With `COc1ccc(C2=C(c3ccc(F)cc3F)c3ccc(OCCN4CCS(=O)(=O)CC4)cc3C2=O)cc1F` [Example 114, 2-(3-fluoro-4-methoxyphenyl)-3-(2,4-difluorophenyl)-6-[2-(1,1-dioxothiomorpholin-4-yl)ethoxy]-1H-inden-1-one], the activity at 10 µM came out at 286%.

For `NC(=O)c1ccc(C2=C(c3ccccc3)c3ccc(OCCN4CCOCC4)cc3C2=O)cc1` [Example 4, 4-(6-(2-morpholinoethoxy)-1-oxo-3-phenyl-1H-inden-2-yl)benzamide], the activity at 10 µM was 128%.

Turning to `CC(=O)N1CCN(CCCOc2ccc3c(c2)C(=O)C(c2cccnc2)=C3c2cc(F)cc(F)c2)CC1` [Example 67, 6-(3-(4-acetylpiperazin-1-yl)propoxy)-3-(3,5-difluorophenyl)-2-(pyridin-3-yl)-1H-inden-1-one hydrochloride salt], the activity at 10 µM is 116%.

The values above are taken from patent publication US8877747B2, “Indenone derivative and pharmaceutical composition comprising same” (Korea Research Institute of Chemical Technology, priority 2009, dated 2014).
